The target in assay [1] is Histone deacetylase 3/Nuclear receptor corepressor 2 (HDAC3/NCoR2) (Homo sapiens) (UniProt O15379+Q9Y618). Nature of the assay: Inhibition of human recombinant full length C-terminal His-tagged HDAC3 (1 to 428 residues)/N-terminal GST-tagged NCOR2 (395 to 489 residues) expressed in baculovirus infected Sf9 insect cells at 10 uM using Boc-Lys(epsilon-acetyl)-AMC as substrate incubated for 90 mins by fluorescence assay relative to control.

Assay [2] addresses Histone deacetylase 3/Nuclear receptor corepressor 2 (HDAC3/NCoR2) (Homo sapiens, UniProt O15379). Nature of the assay: biochemical. It counts as cell-based, Sf9.
Description: Inhibition of human recombinant full length C-terminal His-tagged HDAC3 (1 to 428 residues)/N-terminal GST-tagged NCOR2 (395 to 489 residues) expressed in baculovirus infected Sf9 insect cells using Boc-Lys(epsilon-acetyl)-AMC as substrate incubated for 90 mins by fluorescence assay
In assay [3] the test system is A2780. Kind of assay: Cytotoxicity against human A2780 cells assessed as reduction in cell survival up to 100 uM measured after 72 hrs by MTT assay. It counts as functional, cell-based.
Assay [4] has as its target T1, Class 1 histone deacetylase (Homo sapiens, UniProt Q13547+O15379+Q92769+Q9BY41). Kind of assay: Inhibition of class 1 HDAC in human CAL27 cells assessed as potentiation of cisplatin-induced cytotoxicity by measuring combination index at […] in presence of 10 uM cisplatin by MTT assay based Chou-Talalay analysis. The conditions noted are these: CAL-27. It counts as cell-based.

In assay [5] the target is T1, Class 1 histone deacetylase. Nature of the assay: Inhibition of class 1 HDAC in human CAL27 cells assessed as potentiation of cisplatin-induced cytotoxicity by measuring combination index at […] in presence of […] cisplatin by MTT assay based Chou-Talalay analysis. It counts as cell-based. The conditions noted are these: CAL-27. (Tetrazolium assays rely on reduction of a dye to a coloured formazan, in cell work by metabolically active cells.)

Assay [6] has the same target. Nature of the assay: Inhibition of class 1 HDAC in human CAL27 cells assessed as potentiation of cisplatin-induced cytotoxicity by measuring combination index at […] in presence of 1 uM cisplatin by MTT assay based Chou-Talalay analysis. It counts as cell-based. The conditions noted are these: CAL-27.
Assay [7] shares this target. Kind of assay: Inhibition of class 1 HDAC in human CAL27 cells assessed as potentiation of cisplatin-induced cytotoxicity by measuring combination index at 1 uM in presence of 10 uM cisplatin by MTT assay based Chou-Talalay analysis. It counts as cell-based. The conditions noted are these: CAL-27.
For assay [8] the target is unchanged. Nature of the assay: Inhibition of class 1 HDAC in human CAL27 cells assessed as potentiation of cisplatin-induced cytotoxicity by measuring combination index at 1 uM in presence of […] cisplatin by MTT assay based Chou-Talalay analysis. It counts as cell-based. The conditions noted are these: CAL-27.
The target is the same in assay [9]. Kind of assay: Inhibition of class 1 HDAC in human CAL27 cells assessed as potentiation of cisplatin-induced cytotoxicity by measuring combination index at 1 uM in presence of 0.10 uM cisplatin by MTT assay based Chou-Talalay analysis. It counts as cell-based. The conditions noted are these: CAL-27.
For assay [10] the target is unchanged. Kind of assay: Inhibition of class 1 HDAC in human Cal27CisR cells assessed as potentiation of cisplatin-induced cytotoxicity by measuring combination index at 1 uM in presence of 1 uM cisplatin by MTT assay based Chou-Talalay analysis. It counts as cell-based.
Assay [11] shares this target. Nature of the assay: Inhibition of class 1 HDAC in human Cal27CisR cells assessed as potentiation of cisplatin-induced cytotoxicity by measuring combination index at 1 uM in presence of […] cisplatin by MTT assay based Chou-Talalay analysis. It counts as cell-based.
Assay [12] has the same target. Nature of the assay: Inhibition of class 1 HDAC in human Cal27CisR cells assessed as potentiation of cisplatin-induced cytotoxicity by measuring combination index at 1 uM in presence of 10 uM cisplatin by MTT assay based Chou-Talalay analysis. It counts as cell-based.
Assay [13] shares this target. Nature of the assay: Inhibition of class 1 HDAC in human Cal27CisR cells assessed as potentiation of cisplatin-induced cytotoxicity by measuring combination index at 1 uM in presence of 32 uM cisplatin by MTT assay based Chou-Talalay analysis. It counts as cell-based.
Assay [14] shares this target. Nature of the assay: Inhibition of class 1 HDAC in human Cal27CisR cells assessed as potentiation of cisplatin-induced cytotoxicity by measuring combination index at 1 uM in presence of 100 uM cisplatin by MTT assay based Chou-Talalay analysis. It counts as cell-based.
Assay [15] has the same target. Nature of the assay: Inhibition of class 1 HDAC in human Cal27CisR cells assessed as potentiation of cisplatin-induced cytotoxicity by measuring combination index at […] in presence of 1 uM cisplatin by MTT assay based Chou-Talalay analysis. It counts as cell-based.
For assay [16] the target is unchanged. Nature of the assay: Inhibition of class 1 HDAC in human Cal27CisR cells assessed as potentiation of cisplatin-induced cytotoxicity by measuring combination index at […] in presence of 10 uM cisplatin by MTT assay based Chou-Talalay analysis. It counts as cell-based.
Assay [17] shares this target. Nature of the assay: Inhibition of class 1 HDAC in human Cal27CisR cells assessed as potentiation of cisplatin-induced cytotoxicity by measuring combination index at […] in presence of 32 uM cisplatin by MTT assay based Chou-Talalay analysis. It counts as cell-based.
Assay [18] shares this target. Conditions: CAL-27.
Description: Inhibition of class 1 HDAC in human CAL27 cells assessed as potentiation of cisplatin-induced cytotoxicity by measuring combination index at 0.5 uM in presence of 0.32 uM cisplatin by MTT assay based Chou-Talalay analysis
Assay [19] shares this target. Conditions: CAL-27. The source holds these as a separate data set.
Description: Inhibition of class 1 HDAC in human CAL27 cells assessed as potentiation of cisplatin-induced cytotoxicity by measuring combination index at 0.5 uM in presence of 3.2 uM cisplatin by MTT assay based Chou-Talalay analysis
For assay [20] the target is unchanged. Conditions: CAL-27. This is another data set of the same source.
Description: Inhibition of class 1 HDAC in human CAL27 cells assessed as potentiation of cisplatin-induced cytotoxicity by measuring combination index at 0.5 uM in presence of 10 uM cisplatin by MTT assay based Chou-Talalay analysis
For assay [21] the target is unchanged.
Description: Inhibition of class 1 HDAC in human Cal27CisR cells assessed as potentiation of cisplatin-induced cytotoxicity by measuring combination index at 0.5 uM in presence of 1 uM cisplatin by MTT assay based Chou-Talalay analysis
For assay [22] the target is unchanged. This is another data set of the same source.
Description: Inhibition of class 1 HDAC in human Cal27CisR cells assessed as potentiation of cisplatin-induced cytotoxicity by measuring combination index at 0.5 uM in presence of 3.2 uM cisplatin by MTT assay based Chou-Talalay analysis
The target is the same in assay [23]. The source holds these as a separate data set.
Description: Inhibition of class 1 HDAC in human Cal27CisR cells assessed as potentiation of cisplatin-induced cytotoxicity by measuring combination index at 0.5 uM in presence of 10 uM cisplatin by MTT assay based Chou-Talalay analysis
The target is the same in assay [24]. The source holds these as a separate data set.
Assay [25] has the same target. This is another data set of the same source.
Description: Inhibition of class 1 HDAC in human Cal27CisR cells assessed as potentiation of cisplatin-induced cytotoxicity by measuring combination index at 0.5 uM in presence of 100 uM cisplatin by MTT assay based Chou-Talalay analysis
In a further assay the target is Histone deacetylase 2 (Homo sapiens, UniProt Q92769). Nature of the assay: Inhibition of recombinant human full length C-terminal FLAG-tagged HDAC2 expressed in baculovirus infected Sf9 insect cells using Boc-Lys(epsilon-acetyl)-AMC as substrate incubated for 90 mins by fluorescence assay. It counts as cell-based.
In assay [26] the test system is A2780. Nature of the assay: Cytotoxicity against human A2780 cells assessed as reduction in cell survival measured after 72 hrs by MTT assay. The conditions noted are these: A2780, 72 h. It counts as functional, cell-based.
The subject of the next assay is CAL-27. Kind of assay: Induction of apoptosis in human CAL27 cells assessed as caspase-3/7 activation at 0.5 uM measured after 48 hrs by CellEvent caspase 3/7 green detection reagent/Hoechst 33342 staining based imaging analysis relative to control. It counts as functional.
Assay [27] deals with T1, Class 1 histone deacetylase. Conditions: CAL-27. The source holds these as a separate data set.
Description: Inhibition of class 1 HDAC in human CAL27 cells assessed as potentiation of cisplatin-induced cytotoxicity by measuring combination index at 0.25 uM in presence of 0.32 uM cisplatin by MTT assay based Chou-Talalay analysis
Assay [28] has the same target. Conditions: CAL-27. This is another data set of the same source.
Description: Inhibition of class 1 HDAC in human CAL27 cells assessed as potentiation of cisplatin-induced cytotoxicity by measuring combination index at 0.1 uM in presence of 0.32 uM cisplatin by MTT assay based Chou-Talalay analysis
Assay [29] shares this target. The source holds these as a separate data set.
Description: Inhibition of class 1 HDAC in human Cal27CisR cells assessed as potentiation of cisplatin-induced cytotoxicity by measuring combination index at 0.10 uM in presence of 100 uM cisplatin by MTT assay based Chou-Talalay analysis

Structures are written as SMILES. The source made the active and inactive calls. The rule behind the calls is not given here.

T1 sequence (O15379 whole entry, looked up): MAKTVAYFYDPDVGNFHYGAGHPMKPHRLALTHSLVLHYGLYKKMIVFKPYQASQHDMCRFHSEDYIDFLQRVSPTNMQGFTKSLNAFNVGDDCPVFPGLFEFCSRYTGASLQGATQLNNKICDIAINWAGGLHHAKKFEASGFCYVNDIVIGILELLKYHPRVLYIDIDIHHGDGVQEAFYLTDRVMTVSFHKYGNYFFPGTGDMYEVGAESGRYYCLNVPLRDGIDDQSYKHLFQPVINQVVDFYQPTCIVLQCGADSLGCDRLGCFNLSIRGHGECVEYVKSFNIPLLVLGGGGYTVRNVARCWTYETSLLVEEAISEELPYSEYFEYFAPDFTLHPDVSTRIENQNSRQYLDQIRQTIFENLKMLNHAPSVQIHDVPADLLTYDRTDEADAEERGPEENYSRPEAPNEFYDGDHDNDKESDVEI
T1 sequence (Q13547 whole entry, looked up): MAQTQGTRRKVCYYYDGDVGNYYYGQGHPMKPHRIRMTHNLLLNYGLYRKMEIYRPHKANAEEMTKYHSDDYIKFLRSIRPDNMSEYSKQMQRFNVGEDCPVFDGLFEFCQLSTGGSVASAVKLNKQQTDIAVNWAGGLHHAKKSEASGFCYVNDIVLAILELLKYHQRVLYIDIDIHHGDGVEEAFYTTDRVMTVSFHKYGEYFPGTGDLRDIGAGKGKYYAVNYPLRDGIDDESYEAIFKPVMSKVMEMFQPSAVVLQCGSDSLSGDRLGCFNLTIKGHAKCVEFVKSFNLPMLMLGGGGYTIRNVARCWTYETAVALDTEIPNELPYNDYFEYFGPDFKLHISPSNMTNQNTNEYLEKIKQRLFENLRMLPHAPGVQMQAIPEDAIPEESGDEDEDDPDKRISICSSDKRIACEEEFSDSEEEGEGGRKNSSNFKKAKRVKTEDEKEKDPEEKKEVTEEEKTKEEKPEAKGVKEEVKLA
T1 sequence (Q92769 whole entry, looked up): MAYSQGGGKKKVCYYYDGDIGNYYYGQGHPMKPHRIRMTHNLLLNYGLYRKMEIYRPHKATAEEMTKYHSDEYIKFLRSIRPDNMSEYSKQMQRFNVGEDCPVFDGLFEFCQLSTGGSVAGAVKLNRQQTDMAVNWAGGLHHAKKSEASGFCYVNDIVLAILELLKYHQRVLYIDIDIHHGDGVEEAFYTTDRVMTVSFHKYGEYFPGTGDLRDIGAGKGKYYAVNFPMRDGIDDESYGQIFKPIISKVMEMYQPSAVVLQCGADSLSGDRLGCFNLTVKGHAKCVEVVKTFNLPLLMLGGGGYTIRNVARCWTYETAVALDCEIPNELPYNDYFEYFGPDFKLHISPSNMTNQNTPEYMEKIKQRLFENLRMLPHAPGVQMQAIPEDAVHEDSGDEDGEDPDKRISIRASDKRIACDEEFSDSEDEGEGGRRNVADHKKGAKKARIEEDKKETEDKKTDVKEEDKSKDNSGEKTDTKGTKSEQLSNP
T1 sequence (Q9BY41 whole entry, looked up): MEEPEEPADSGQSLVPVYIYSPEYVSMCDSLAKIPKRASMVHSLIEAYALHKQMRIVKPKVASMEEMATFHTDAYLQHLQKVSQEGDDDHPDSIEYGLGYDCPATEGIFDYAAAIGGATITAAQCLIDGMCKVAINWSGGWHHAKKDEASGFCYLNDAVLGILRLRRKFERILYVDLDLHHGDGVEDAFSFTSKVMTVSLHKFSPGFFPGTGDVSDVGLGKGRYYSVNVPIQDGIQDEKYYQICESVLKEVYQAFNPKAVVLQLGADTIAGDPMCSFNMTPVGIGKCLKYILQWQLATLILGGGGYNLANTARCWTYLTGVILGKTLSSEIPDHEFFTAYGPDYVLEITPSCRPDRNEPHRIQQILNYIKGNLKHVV
Histone deacetylase 2, sequence (Q92769 whole entry): as the sequence (Q92769 whole entry, looked up) above
Histone deacetylase 3/Nuclear receptor corepressor 2 (HDAC3/NCoR2), sequence (O15379 whole entry): as the sequence (O15379 whole entry, looked up) above
Histone deacetylase 3/Nuclear receptor corepressor 2 (HDAC3/NCoR2), sequence (Q9Y618 whole entry, further chain): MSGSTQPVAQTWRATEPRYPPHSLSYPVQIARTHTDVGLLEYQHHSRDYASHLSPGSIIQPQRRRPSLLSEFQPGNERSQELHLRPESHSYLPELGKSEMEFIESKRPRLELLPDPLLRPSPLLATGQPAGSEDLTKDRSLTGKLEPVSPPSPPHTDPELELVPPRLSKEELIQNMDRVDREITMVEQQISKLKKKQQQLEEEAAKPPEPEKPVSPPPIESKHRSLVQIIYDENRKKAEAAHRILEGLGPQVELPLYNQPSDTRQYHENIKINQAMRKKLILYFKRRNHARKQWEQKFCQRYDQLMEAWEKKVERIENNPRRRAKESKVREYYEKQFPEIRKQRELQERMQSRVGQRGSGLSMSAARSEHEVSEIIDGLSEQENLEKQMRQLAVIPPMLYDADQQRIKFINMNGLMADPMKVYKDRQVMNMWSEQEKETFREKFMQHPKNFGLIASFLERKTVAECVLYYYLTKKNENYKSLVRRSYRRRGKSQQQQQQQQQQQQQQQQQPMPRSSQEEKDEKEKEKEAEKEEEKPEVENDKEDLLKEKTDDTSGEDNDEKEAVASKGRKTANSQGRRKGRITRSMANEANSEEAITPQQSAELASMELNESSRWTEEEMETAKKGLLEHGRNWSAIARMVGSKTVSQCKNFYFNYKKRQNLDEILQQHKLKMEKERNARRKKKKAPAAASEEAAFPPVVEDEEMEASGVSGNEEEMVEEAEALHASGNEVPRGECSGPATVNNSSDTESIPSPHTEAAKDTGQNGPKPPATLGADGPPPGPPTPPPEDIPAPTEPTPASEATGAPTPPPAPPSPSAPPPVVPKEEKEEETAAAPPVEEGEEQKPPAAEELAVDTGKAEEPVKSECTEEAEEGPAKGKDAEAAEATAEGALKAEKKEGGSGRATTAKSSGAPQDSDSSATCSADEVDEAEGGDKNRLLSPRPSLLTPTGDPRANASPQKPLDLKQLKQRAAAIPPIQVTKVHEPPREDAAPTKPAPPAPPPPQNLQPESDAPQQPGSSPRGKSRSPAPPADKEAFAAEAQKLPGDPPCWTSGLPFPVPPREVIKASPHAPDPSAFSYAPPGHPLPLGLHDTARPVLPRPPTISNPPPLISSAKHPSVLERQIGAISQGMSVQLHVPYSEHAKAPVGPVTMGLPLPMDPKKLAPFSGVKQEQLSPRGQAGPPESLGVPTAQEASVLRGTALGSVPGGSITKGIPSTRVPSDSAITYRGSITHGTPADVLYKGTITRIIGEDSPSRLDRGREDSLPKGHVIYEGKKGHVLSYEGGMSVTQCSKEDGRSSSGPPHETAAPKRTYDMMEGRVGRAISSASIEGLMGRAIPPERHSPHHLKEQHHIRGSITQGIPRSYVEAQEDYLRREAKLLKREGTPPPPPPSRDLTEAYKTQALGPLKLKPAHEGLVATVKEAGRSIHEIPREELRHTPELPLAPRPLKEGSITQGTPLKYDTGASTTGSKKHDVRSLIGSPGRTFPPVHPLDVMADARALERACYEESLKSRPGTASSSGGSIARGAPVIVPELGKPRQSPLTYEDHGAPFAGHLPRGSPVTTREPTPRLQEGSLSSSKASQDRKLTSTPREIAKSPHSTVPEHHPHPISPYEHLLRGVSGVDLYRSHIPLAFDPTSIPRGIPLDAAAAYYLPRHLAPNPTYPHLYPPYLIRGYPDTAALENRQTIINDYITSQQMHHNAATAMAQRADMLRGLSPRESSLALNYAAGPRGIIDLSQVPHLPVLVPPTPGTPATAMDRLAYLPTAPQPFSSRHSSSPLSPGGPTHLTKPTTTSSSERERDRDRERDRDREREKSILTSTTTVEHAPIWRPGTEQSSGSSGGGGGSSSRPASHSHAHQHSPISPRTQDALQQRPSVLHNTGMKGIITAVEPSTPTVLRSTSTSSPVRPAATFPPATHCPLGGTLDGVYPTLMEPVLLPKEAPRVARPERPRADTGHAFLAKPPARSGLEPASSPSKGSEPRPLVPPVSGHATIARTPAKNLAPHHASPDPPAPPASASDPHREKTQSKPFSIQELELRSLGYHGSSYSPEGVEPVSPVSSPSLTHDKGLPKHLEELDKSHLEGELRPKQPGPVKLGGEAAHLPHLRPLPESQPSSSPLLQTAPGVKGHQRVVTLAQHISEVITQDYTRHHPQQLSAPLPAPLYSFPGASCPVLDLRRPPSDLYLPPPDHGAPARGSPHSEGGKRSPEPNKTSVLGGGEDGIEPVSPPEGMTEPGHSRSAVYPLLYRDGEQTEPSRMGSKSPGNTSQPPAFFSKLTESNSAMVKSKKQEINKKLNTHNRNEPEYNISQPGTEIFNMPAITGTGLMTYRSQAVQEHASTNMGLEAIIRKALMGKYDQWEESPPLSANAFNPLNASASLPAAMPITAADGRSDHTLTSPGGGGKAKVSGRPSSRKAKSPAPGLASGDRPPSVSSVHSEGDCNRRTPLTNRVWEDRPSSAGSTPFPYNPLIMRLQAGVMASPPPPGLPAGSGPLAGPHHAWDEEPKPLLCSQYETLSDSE

As a reminder, the inhibition is the drop in the measured response relative to a control, in per cent. A word on the IC50: it is the concentration needed to halve the response being measured. `Cc1cc(C)cc(C(=O)N(CC(=O)NCc2ccccc2)Cc2ccc(C(=O)Nc3cc(-c4ccccc4)ccc3N)cc2)c1`: in assay [1], the inhibition was < 15%. Also, the concentration for half-maximal inhibition (IC50) in assay [2] is > 10000 nM. Further, in the assay on A2780 [3], the result was inactive. Further, the CI stood at 0.08 in [4]; 0.14 in [5]; 0.23 in assay [6]; 0.16 in assay [7]; 0.2 in assay [8]; 0.42 in [9]. The CI in [10] was < 0.2; in assay [11], 0.81; in assay [12], 0.5; in [13] it was 0.27; in [14], 0.08; in assay [15] it was < 0.2. Besides, the CI worked out at 0.31 in [16]; 0.18 in assay [17]; 0.7 in assay [18]; 0.21 in assay [19]; 0.18 in assay [20]; 0.77 in assay [21]. Besides, the CI in [22] was < 0.2; in assay [23], 0.76; in [24], < 0.2; in assay [25] it was 0.1.
In the case of `CN(C)c1ccc(C(=O)N(CC(=O)NCc2ccccc2)Cc2ccc(C(=O)Nc3ccccc3N)cc2)cc1`, the IC50 in assay [2] was 586 nM; on Histone deacetylase 2, 283 nM; in the assay with A2780 [26], 2400 nM. In addition, in the assay with CAL-27, the Activity stood at 12%. In addition, the CI in assay [27] is 0.39; in assay [28], < 0.2; in assay [18], 0.32; in [19], 0.07; in assay [20], 0.07; in assay [29], 0.07. The CI came to 0.33 in [21]; 0.25 in [22]; 0.12 in assay [23]; 0.03 in [24]; 0.07 in [25].
For the compound `Cc1cc(C)cc(C(=O)N(CCCCCC(=O)Nc2cc(-c3ccccc3)ccc2N)CC(=O)NCc2ccccc2)c1`, the inhibition in assay [1] is 20%. Moreover, the concentration for half-maximal inhibition (IC50) was 1810 nM at Histone deacetylase 2 and 17100 nM in the assay with A2780 [26]. Besides, the CI was 0.12 in [4]; 0.25 in assay [5]; < 0.2 in [6]; 0.53 in assay [7]; < 0.2 in assay [8]; < 0.2 in [9]. Further, the CI is < 0.2 in assay [10]; < 0.2 in [11]; < 0.2 in [12]; < 0.2 in assay [13]; 0.06 in assay [14]; < 0.2 in assay [15]. Besides, the results for the CI in assay [16] and in assay [17] were < 0.2 and 0.74, respectively.

The record behind these values is ChEMBL document CHEMBL4334526, “Synthesis of Peptoid-Based Class I-Selective Histone Deacetylase Inhibitors with Chemosensitizing Properties” (J Med Chem, 2019).
